Experimental data from US7087809B2, “Natural herbicide resistance in wheat” (Natural Genes, Inc., priority 2003, dated 2006).

Columns and labels:
Assay type in all cases: in vivo, Triticum aestivum
[1] = system: wheat plants of the 64 flats (progeny of surviving plants); assay: Spraying of progeny seedlings of surviving plants with glyphosate herbicide at the three-leaf stage in the greenhouse; details: 1.2 percent aqueous solution sprayed at three-leaf stage
Description: Fifteen seeds from each head of each surviving plant were next planted in 64 individual flats in a greenhouse containing a like 50/50 sandy-loam top soil/peat growing medium. A designation system was adopted which began with the initial Wheat Population Designation (e.g., W1) next followed by the plant number (e.g., −1, −2 for W1), and finally followed by the head number (e.g., h1). The wheat plants of the 64 flats were identified as follows:
The seeds were encouraged to germinate and wheat plants emerged. At the three-leaf stage a 1.2 percent aqueous solution of glyphosate herbicide was applied to the plants by spraying. […] Remnant seeds from these 2 plants taken from heads W2-1-h10 and W2-4-h9 were planted in the greenhouse, germinated, and underwent self-pollination to increase the seeds. Plants derived from these seeds were not subjected to the glyphosate herbicide in an effort to maximize yield and to establish a germplasm base for further testing. W2-1-h10 produced six healthy plants that were designated W2-1-h10-p1-1a through -6a. The “a” designation served to specify that the generation was not treated with glyphosate herbicide. Similarly, W2-4-h9 produced 10 plants that were designated W2-4-h9-p1-1a through 10a. All plants were allowed to mature, to undergo self-pollination, and to produce seed heads. Each head was tagged to maintain a clear record of lineage. […]

[2] = system: wheat selections of 'WA7824'/'Zeke' pedigree; assay: Glyphosate herbicide treatment of selections grown in greenhouse flats (after field head row treatment); details: 1.2 percent by weight aqueous solution sprayed at three-leaf stage; for Number Killed by Glyphosate Herbicide Treatment / Number of Survivors of Glyphosate Herbicide Treatment: greenhouse flats
Description: The wheat seedlings arising from the germination of this planting were allowed to establish and grow to the three-leaf stage. At this stage of growth glyphosate herbicide was applied to the plants at a rate of 32 oz. per Acre. Survivors of this treatment were allowed to mature, to undergo self-pollination, and the heads from each plant were tagged, removed, and placed in individual containers to ensure a record of continuous lineage from the plants used in the increase (i.e., W2-1-h10-p1-la through 6a and W2-4-h9-p1-la through 10a). Seeds from each head removed from the surviving plants that were exposed to glyphosate herbicide in the field head row plots next were planted in flats in the greenhouse for germination and seedling establishment. The seeds from each head were planted in separate flats to maintain the integrity of each line. At the three-leaf stage, the resulting seedlings were sprayed with an aqueous 1.2 percent by weight solution of glyphosate herbicide. Surviving plants were allowed to grow to maturity, to undergo self-pollination, and to produce heads and seeds. This was done to ensure that the survivors of the glyphosate herbicide treatment also remained fertile and produced viable seeds.

[3] = system: hard red spring wheat populations (W1 through W15); assay: Soaking of wheat seeds in glyphosate herbicide solution, planting in herbicide-treated growing medium, count of surviving plants; details: for Surviving plants after seed treatment: seed soaking and planting; for Number of Surviving Wheat Plants: approx. 5,000 seeds
Procedure: Preferably the wheat seeds are soaked in an aqueous solution of the herbicide. Commonly the herbicide is present in the solution in a concentration of approximately 1.5 to 6 percent by weight, and most preferably in a concentration of approximately 2 percent by weight. Commonly the wheat seeds are simply immersed in the liquid comprising the herbicide. The soaking of wheat seeds is conducted for a period of time that is sufficient for the herbicide to reach the embryos of the wheat seeds. […] The liquid comprising the herbicide can be simply provided at room temperature when the wheat seeds are in contact with the liquid and are undergoing such soaking.
Alternatively, such screening of the resulting wheat plants for herbicide resistance can include the presence of the herbicide in the growing medium where the resulting seeds are planted. Good results are obtained in a preferred embodiment when one gallon of a solution containing the herbicide in a concentration of approximately 1.5 to 6 percent by weight is added to each 4 gallons of soil. The presence of the herbicide in the soil helps to assure that an atypical wheat seed having a harder seed coat has not given a false indication of herbicide resistance by its survival up to the point of germination.
Some varieties have produced no surviving plants in tests to date. Some varieties have produced up to approximately 4 surviving plant per 5,000 seeds, others approximately 1 surviving plant per 5,000 seeds. The herbicide resistance of the resulting plants can be further confirmed by another contact (e.g., spraying) with the glyphosate herbicide.
Fifteen different known and publically available hard red spring wheat populations (W1 through W15) were chosen for evaluation and screening in accordance with the process of the present invention. Each of the starting materials was believed to lack herbicide resistance that is attributable to genetic engineering. Also, each population, as all other Triticum aestivium varieties, was regarded to be highly sensitive to glyphosate herbicide during previous observations.
Individual batches of each wheat population were initially immersed and were soaked in 2 percent aqueous solutions of glyphosate herbicide that were present at room temperature. The wheat seeds were provided in contact with the glyphosate herbicide for a period of 6 hours during which time the glyphosate herbicide reached the embryos of the seeds.
Each wheat seed population was labeled and next was planted in a 50/50 sandy-loam top soil/peat growing medium. The wheat seeds were present in flats containing the growing medium at a depth of approximately 2 inches. The same 2 percent by weight aqueous solutions of glyphosate herbicide were poured into each growing medium containing the wheat seeds.
The flats containing the wheat seeds next were placed in a greenhouse under ambient conditions in an effort to achieve germination. The sandy-loam top soil/peat growing medium was periodically watered in an effort to achieve near field growing conditions except for the presence of glyphosate herbicide.
Of those that did germinate some died within the first 2 days, and only 6 of the 15 wheat populations produced any plants following the soaking in the glyphosate herbicide as reported in Table I. These 6 populations were W1 to W5 and W15. Each plant was carefully preserved and tagged in order to preserve the lineage for those that survived the exposure to the glyphosate herbicide at the seed stage.

Compound: O=C(O)CNCP(=O)(O)O [glyphosate herbicide, N-(phosphonomethyl)glycine]
- Seedlings surviving the application of glyphosate herbicide ([1]; seedlings derived from W1-2): single seedling
- Seedlings surviving the application of glyphosate herbicide ([1]; seedlings derived from W2-4): single seedling
- Tolerance of plants of the selections to the herbicide ([2]; all selections from field head rows): All selections generated plants that were tolerant to the herbicide
- Number Killed by Glyphosate Herbicide Treatment ([2]; selection W2-1-h10-p16a-h2-h1): 0
- Number of Survivors of Glyphosate Herbicide Treatment ([2]; selection W2-1-h10-p16a-h2-h1): 10
- Number Killed by Glyphosate Herbicide Treatment ([2]; selection W2-1-h10-p16a-h2-h5): 0
- Number of Survivors of Glyphosate Herbicide Treatment ([2]; selection W2-1-h10-p16a-h2-h5): 15
- Number Killed by Glyphosate Herbicide Treatment ([2]; selection W2-4-h9-p13a-h2-h17): 0
- Number of Survivors of Glyphosate Herbicide Treatment ([2]; selection W2-4-h9-p13a-h2-h17): 3
- Number Killed by Glyphosate Herbicide Treatment ([2]; selection W2-4-h9-p13a-h2-h18): 0
- Number of Survivors of Glyphosate Herbicide Treatment ([2]; selection W2-4-h9-p13a-h2-h18): 5
- Germination of glyphosate herbicide-treated seeds ([3]; approx. 75,000 seeds of 15 populations, 2 percent aqueous glyphosate, 6 hours soak, observed 10 to 15 days): failed to germinate
- Surviving plants after seed treatment ([3]; other varieties): approximately 1 surviving plant per 5,000 seeds
- Number of wheat populations (of 15) that produced any plants following the soaking ([3]; populations W1 through W15, 2 percent aqueous glyphosate, 6 hours soak): 6
- Surviving plants after seed treatment ([3]; some varieties): ≤ 4 surviving plant per 5,000 seeds
- Number of Surviving Wheat Plants ([3]; wheat population W1 ('ID377'/'WestBred 926'), 2 percent aqueous glyphosate, 6 hours soak, same solution in growing medium): 4
- Number of Surviving Wheat Plants ([3]; wheat population W2 ('WA7824'/'Zeke'), 2 percent aqueous glyphosate, 6 hours soak, same solution in growing medium): 5
- Number of Surviving Wheat Plants ([3]; wheat population W3 ('SLW97606'/'WestBred 926'), 2 percent aqueous glyphosate, 6 hours soak): 1
- Number of Surviving Wheat Plants ([3]; wheat population W4 ('SLW97606'/'WestBred 936'), 2 percent aqueous glyphosate, 6 hours soak): 2
- Number of Surviving Wheat Plants ([3]; wheat population W5 ('SLW97606'/'Zeke'), 2 percent aqueous glyphosate, 6 hours soak): 1
- Number of Surviving Wheat Plants ([3]; wheat population W6 ('BZ692-108b'/'Calorwa'), 2 percent aqueous glyphosate, 6 hours soak): 0
- Number of Surviving Wheat Plants ([3]; wheat population W7 ('BZ966-472w'/'Pristine'), 2 percent aqueous glyphosate, 6 hours soak): 0
- Number of Surviving Wheat Plants ([3]; wheat population W8 ('Hank'/'BZ994-484'), 2 percent aqueous glyphosate, 6 hours soak): 0
- Number of Surviving Wheat Plants ([3]; wheat population W9 ('MT9959'/'Hank'), 2 percent aqueous glyphosate, 6 hours soak): 0
- Number of Surviving Wheat Plants ([3]; wheat population W10 ('McNeal'/'Parshall'), 2 percent aqueous glyphosate, 6 hours soak): 0
- Number of Surviving Wheat Plants ([3]; wheat population W11 ('Reeder'/'Conan'), 2 percent aqueous glyphosate, 6 hours soak): 0
- Number of Surviving Wheat Plants ([3]; wheat population W12 ('WA7899'/'Jefferson'), 2 percent aqueous glyphosate, 6 hours soak): 0
- Number of Surviving Wheat Plants ([3]; wheat population W13 ('Alpowa'/'Zak'), 2 percent aqueous glyphosate, 6 hours soak): 0
- Number of Surviving Wheat Plants ([3]; wheat population W14 ('Vanna'/'Zak'), 2 percent aqueous glyphosate, 6 hours soak): 0
- Number of Surviving Wheat Plants ([3]; wheat population W15 ('Zak'/'BZ698-41'), 2 percent aqueous glyphosate, 6 hours soak): 4
